This is an account of results in PubChem BioAssay (NCI).

Among the test systems are MCF7 breast; MDA-MB-435; OVCAR-8 ovarian; HL-60(TB) leukemia; LOX IMVI melanoma; SK-OV-3 ovarian; CCRF-CEM leukemia; MOLT-4 leukemia; HCT-116 colon; OVCAR-3 ovarian.
Assay in all cases: DTP human tumour cell line panel, 48 h

The structures appear in SMILES notation.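 Test compounds were applied to cells in 96-well plates for 48 hours at 5 doses. The concentration for 50% growth inhibition is given as GI50. TGI denotes the concentration required for complete inhibition of growth.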 Bounds are passed on as bounds.

For `O=C(Nc1ccccc1)OC1OC(COC(=O)c2ccccc2)C(OC(=O)c2ccccc2)C1OS(=O)(=O)c1ccc([N+](=O)[O-])cc1` (stereo unspecified), the total growth inhibition concentration (TGI) in the assay on MCF7 breast, with MDA-MB-435, in the assay on OVCAR-8 ovarian, in the assay with HL-60(TB) leukemia, in the assay on LOX IMVI melanoma and with SK-OV-3 ovarian was over 100 µM in each case. For the same molecule, the TGI with CCRF-CEM leukemia, with MOLT-4 leukemia, in the assay with HCT-116 colon and in the assay on OVCAR-3 ovarian was over 100 µM throughout.
With `Cn1c(=O)c(Oc2ccc(F)cc2F)cc2cnc(N[C@@H]3CCOC3)nc21`, the GI50 with MCF7 breast, with MDA-MB-435, with OVCAR-8 ovarian, in the assay with HL-60(TB) leukemia, in the assay with LOX IMVI melanoma and in the assay on SK-OV-3 ovarian was over 25 µM in each case. For the same molecule, the GI50 in the assay with CCRF-CEM leukemia, with MOLT-4 leukemia, with HCT-116 colon and in the assay on OVCAR-3 ovarian was over 25 µM throughout. For the same molecule, the TGI in the assay with MCF7 breast, with MDA-MB-435, with OVCAR-8 ovarian, with HL-60(TB) leukemia, with LOX IMVI melanoma and in the assay with SK-OV-3 ovarian was over 25 µM each time. In addition, the concentration for total growth inhibition (TGI) with CCRF-CEM leukemia, in the assay on MOLT-4 leukemia, with HCT-116 colon and in the assay with OVCAR-3 ovarian was over 25 µM each time.
With `O=C(Nc1cc(F)c(F)cc1C(=O)O)c1ccc(-n2ccnc2)nn1`, the GI50 (commonly the concentration giving 50% growth inhibition) with MCF7 breast is over 100 µM; in the assay with MDA-MB-435, over 100 µM; in the assay with OVCAR-8 ovarian it was over 100 µM; in the assay with HL-60(TB) leukemia it was 38.9 µM; in the assay on LOX IMVI melanoma, over 100 µM; in the assay on SK-OV-3 ovarian it was over 100 µM. Further, the GI50 in the assay on CCRF-CEM leukemia is 98.2 µM; with MOLT-4 leukemia it was over 100 µM; in the assay on HCT-116 colon, over 100 µM; with OVCAR-3 ovarian it was 42.4 µM. Further, the TGI with MCF7 breast, in the assay with MDA-MB-435, with OVCAR-8 ovarian, with HL-60(TB) leukemia, with LOX IMVI melanoma and with SK-OV-3 ovarian was over 100 µM each time. The concentration for total growth inhibition (TGI) in the assay with CCRF-CEM leukemia, in the assay with MOLT-4 leukemia, with HCT-116 colon and in the assay on OVCAR-3 ovarian was over 100 µM each time.
Regarding `COc1cc2ncnc(Nc3ccc(Oc4ccnc(C)c4)c(C)c3)c2cc1NC(=O)CC1CCSS1` (stereo unspecified), the GI50 is 0.976 µM in the assay with MDA-MB-435; 2.19 µM in the assay on OVCAR-8 ovarian; 1.28 µM in the assay on HL-60(TB) leukemia; 2.62 µM in the assay on LOX IMVI melanoma; 0.854 µM in the assay with SK-OV-3 ovarian; 0.253 µM in the assay with CCRF-CEM leukemia. The GI50 is 0.134 µM with MOLT-4 leukemia and 0.853 µM in the assay with OVCAR-3 ovarian. Further, the TGI (as a rule, the concentration at which net growth stops) with MDA-MB-435 was 2.48 µM; with OVCAR-8 ovarian, over 50 µM; in the assay with HL-60(TB) leukemia, 2.83 µM; with LOX IMVI melanoma it was over 50 µM; in the assay on SK-OV-3 ovarian it was 1.63 µM; in the assay on CCRF-CEM leukemia it was 1.69 µM. The results for the concentration for total growth inhibition (TGI) in the assay with MOLT-4 leukemia and in the assay with OVCAR-3 ovarian were 0.435 µM and 1.6 µM, respectively.
Regarding `CCOC(=O)c1c(C)nc2c(c1N)/C(=C/c1ccccn1)C(=O)N2Cc1ccccc1`, the GI50 in the assay with MCF7 breast is 1.38 µM; in the assay with OVCAR-8 ovarian it was 1.65 µM; in the assay on HL-60(TB) leukemia, 1.61 µM; with LOX IMVI melanoma, 0.83 µM; in the assay on SK-OV-3 ovarian, 3.08 µM; in the assay with CCRF-CEM leukemia, 1.56 µM. The results for the GI50 with MOLT-4 leukemia, in the assay with HCT-116 colon and in the assay on OVCAR-3 ovarian were 1.72 µM, 0.847 µM and 0.9 µM, respectively. The TGI in the assay with MCF7 breast was 4.13 µM; with OVCAR-8 ovarian, over 50 µM; with HL-60(TB) leukemia it was over 50 µM; with LOX IMVI melanoma it was 1.54 µM; in the assay with SK-OV-3 ovarian, over 50 µM; with CCRF-CEM leukemia, over 50 µM. The total growth inhibition concentration (TGI) in the assay with MOLT-4 leukemia was over 50 µM; in the assay on HCT-116 colon, 1.62 µM; in the assay on OVCAR-3 ovarian, 1.71 µM.
Take `CS(=O)(=O)c1cccc(Nc2ncc3cc(-c4ccccc4Cl)ccc3n2)c1`: the GI50 in the assay with MCF7 breast is 1.37 µM; in the assay on MDA-MB-435, 0.657 µM; with OVCAR-8 ovarian, 1.44 µM; in the assay on HL-60(TB) leukemia, 1.36 µM; in the assay with LOX IMVI melanoma it was 1.06 µM; with SK-OV-3 ovarian, 0.883 µM. For the same molecule, the GI50 in the assay with CCRF-CEM leukemia is 1.47 µM; in the assay with MOLT-4 leukemia, 1.42 µM; in the assay on HCT-116 colon, 1.01 µM; in the assay on OVCAR-3 ovarian it was 1.52 µM. Further, the total growth inhibition concentration (TGI) in the assay on MCF7 breast is over 33.3 µM; with MDA-MB-435, 1.9 µM; in the assay on OVCAR-8 ovarian it was 32 µM; in the assay with HL-60(TB) leukemia, over 33.3 µM; with LOX IMVI melanoma, 4.54 µM; with SK-OV-3 ovarian, 2.99 µM. Moreover, the TGI in the assay with CCRF-CEM leukemia was over 33.3 µM; in the assay with MOLT-4 leukemia it was 14.6 µM; in the assay on HCT-116 colon, 4.51 µM; in the assay on OVCAR-3 ovarian, over 33.3 µM.
Consider `Cc1ccc(-c2nc(-c3nccc4ccccc34)oc2-c2ccccc2)cc1`, for which the TGI in the assay on MCF7 breast was over 100 µM; in the assay on MDA-MB-435 it was over 100 µM; in the assay on OVCAR-8 ovarian it was over 100 µM; in the assay on HL-60(TB) leukemia, over 100 µM; with LOX IMVI melanoma, 48.2 µM; in the assay with SK-OV-3 ovarian it was over 100 µM. Besides, the TGI in the assay on CCRF-CEM leukemia, with MOLT-4 leukemia, with HCT-116 colon and with OVCAR-3 ovarian was over 100 µM each time.
Take `COc1ccc(S(=O)(=O)Nc2c(/C=C\c3cc(OC)c(OC)c(OC)c3)ccc(OC)c2O)cc1`: the GI50 is 0.038 µM in the assay on MCF7 breast; 0.019 µM in the assay on MDA-MB-435; 0.0466 µM in the assay with OVCAR-8 ovarian; 0.0235 µM in the assay with HL-60(TB) leukemia; 0.0455 µM in the assay on LOX IMVI melanoma; 0.0301 µM in the assay with CCRF-CEM leukemia. In addition, the GI50 is 0.0423 µM in the assay on MOLT-4 leukemia, 0.032 µM in the assay with HCT-116 colon and 0.0338 µM with OVCAR-3 ovarian. In addition, the TGI in the assay with MCF7 breast is over 100 µM; in the assay on MDA-MB-435, 0.0484 µM; in the assay on OVCAR-8 ovarian, over 100 µM; in the assay on HL-60(TB) leukemia, 0.0779 µM; with LOX IMVI melanoma, 49.1 µM; in the assay on CCRF-CEM leukemia, over 100 µM. Moreover, the total growth inhibition concentration (TGI) was over 100 µM in the assay on MOLT-4 leukemia, over 100 µM in the assay with HCT-116 colon and 1.21 µM in the assay with OVCAR-3 ovarian.
Take `Oc1ccc2ccccc2c1C=NCc1c(O)ccc2ccccc12`: the total growth inhibition concentration (TGI) in the assay on MCF7 breast, in the assay on MDA-MB-435, with OVCAR-8 ovarian, with LOX IMVI melanoma, in the assay with SK-OV-3 ovarian and in the assay with CCRF-CEM leukemia was over 100 µM throughout. The TGI with MOLT-4 leukemia, with HCT-116 colon and in the assay on OVCAR-3 ovarian was over 100 µM throughout.
